# Patent US9586904B2, “Preparation of (−)-huperzine A” (priority 2013, dated 2017)
# Assay: Solubility of huperzine A-chiral acid salts and of (±)-huperzine A in solvents
# Type: physicochemical
# Excerpt: This invention first prepared a series of huperzine A-chiral acid salts.
substance,measurement,setting,value
(±)-huperzine A,solubility in most solvents,most solvents,rather poorly soluble
same,solubility in various single solvents,"various single solvents, during salt formation",very poor
